Experimental data taken from patent publication US7960561B2, “2-(phenylamino) benzimidazole derivatives and their use as modulators of small-conductance calcium-activated potassium channels” (Neurosearch A/S, priority 2005, dated 2011).
Structures can show the parent of a compound that is named as a salt.

## Clc1ccc(Nc2nc3ccccc3[nH]2)cc1 (as salt: hydrochloride) [Example 1, N-(Benzimidazol-2-yl)-4-chloroaniline]
  melting point: 238 to 240 °C

## FC(F)(F)c1cc(Nc2nc3ccccc3[nH]2)ccc1Cl (as salt: hydrochloride) [Example 2, N-(Benzimidazol-2-yl)-4-chloro-3-(trifluoromethyl)aniline]
  melting point: 255 to 260 °C

## Clc1ccc(Nc2nc3ccccc3[nH]2)cc1Cl (as salt: hydrochloride) [Example 3, N-(Benzimidazol-2-yl)-3,4-dichloroaniline]
  melting point: > 270 °C

## Clc1cccc(Nc2nc3ccccc3[nH]2)c1 (as salt: hydrochloride) [Example 5, N-(Benzimidazol-2-yl)-3-chloroaniline]
  melting point: 252 to 257 °C

## FC(F)(F)Oc1ccc(Nc2nc3ccccc3[nH]2)cc1 (as salt: hydrochloride) [Example 6, N-(Benzimidazol-2-yl)-4-(trifluoromethoxy)aniline]
  melting point: 250 to 251 °C

## Fc1ccc(Nc2nc3ccccc3[nH]2)cc1 (as salt: hydrochloride) [Example 7, N-(Benzimidazol-2-yl)-4-fluoroaniline]
  melting point: 215 to 216 °C

## Fc1ccc(Nc2nc3ccccc3[nH]2)cc1F (as salt: hydrochloride) [Example 8, N-(Benzimidazol-2-yl)-3,4-difluoroaniline]
  melting point: 283 to 284 °C

## Fc1cc(F)cc(Nc2nc3ccccc3[nH]2)c1 (as salt: hydrochloride) [Example 9, N-(Benzimidazol-2-yl)-3,5-difluoroaniline]
  melting point: 292 to 293 °C

## Fc1ccc(Nc2nc3ccccc3[nH]2)cc1C(F)(F)F (as salt: hydrochloride) [Example 11, N-(Benzimidazol-2-yl)-4-fluoro-3-(trifluoromethyl)aniline]
  melting point: 255 to 257 °C

## Cc1cc(Nc2nc3ccccc3[nH]2)ccc1F (as salt: hydrochloride) [Example 12, N-(Benzimidazol-2-yl)-4-fluoro-3-methylaniline]
  melting point: 246 to 248 °C

## FC(F)(F)c1cc(Nc2nc3ccccc3[nH]2)cc(C(F)(F)F)c1 (as salt: hydrochloride) [Example 13, N-(Benzimidazol-2-yl)-3,5-bis(trifluoromethyl)aniline]
  melting point: 245 to 246 °C

## Fc1ccc(Nc2nc3ccccc3[nH]2)cc1Cl (as salt: hydrochloride) [Example 14, N-(Benzimidazol-2-yl)-3-chloro-4-fluoroaniline]
  melting point: 306 to 307 °C

## Clc1cc(Cl)cc(Nc2nc3ccccc3[nH]2)c1 (as salt: hydrochloride) [Example 15, N-(Benzimidazol-2-yl)-3,5-dichloroaniline]
  melting point: 317 to 318 °C

## FC(F)(F)c1cc(Nc2nc3ccccc3[nH]2)ccc1Br (as salt: hydrochloride) [Example 16, N-(Benzimidazol-2-yl)-4-bromo-3-(trifluoromethyl)aniline]
  melting point: 262 to 264 °C

## Cc1ccc(Nc2nc3ccccc3[nH]2)cc1C(F)(F)F (as salt: hydrochloride) [Example 17, N-(Benzimidazol-2-yl)-4-methyl-3-(trifluoromethyl)aniline]
  melting point: > 265 °C

## Fc1cc(Nc2nc3ccccc3[nH]2)cc(C(F)(F)F)c1 (as salt: hydrochloride) [Example 18, N-(Benzimidazol-2-yl)-3-fluoro-5-(trifluoromethyl)aniline]
  melting point: 263 to 265 °C

## CN(c1ccc(Cl)c(Cl)c1)c1nc2ccccc2[nH]1 (as salt: hydrochloride) [Example 22, N-(Benzoimidazol-2-yl)-N-methyl-3,4-dichloroaniline]
  melting point: > 275 °C

## COc1cc(Nc2nc3ccccc3[nH]2)cc(C(F)(F)F)c1 (as salt: hydrochloride) [Example 24, N-(Benzoimidazol-2-yl)-3-methoxy-5-(trifluoromethyl)aniline]
  melting point: 212 to 213 °C

## FC(F)(F)c1ccc(Nc2nc3ccccc3[nH]2)cc1 [Example 4, N-(Benzimidazol-2-yl)-4-(trifluoromethyl)aniline]
  melting point: 199 to 200 °C

## FC(F)(F)c1cccc(Nc2nc3ccccc3[nH]2)c1 [Example 10, N-(Benzimidazol-2-yl)-3-(trifluoromethyl)aniline]
  melting point: 160 to 162 °C

## Cc1c(Nc2nc3ccccc3[nH]2)cccc1C(F)(F)F [Example 19, N-(Benzimidazol-2-yl)-2-methyl-3-(trifluoromethyl)aniline]
  melting point: 204 to 206 °C

## Fc1c(Nc2nc3ccccc3[nH]2)cccc1C(F)(F)F [Example 20, N-(Benzimidazol-2-yl)-2-fluoro-3-(trifluoromethyl)aniline]
  melting point: 91 to 92 °C

## Fc1ccc(Nc2nc3ccccc3[nH]2)c(F)c1F [Example 21, N-(Benzimidazol-2-yl)-2,3,4-trifluoroaniline]
  melting point: 182 to 183 °C

## N#Cc1cccc(Nc2nc3ccccc3[nH]2)c1 [Example 23, N-(Benzoimidazol-2-yl)-3-cyanoaniline]
  melting point: 272 to 274 °C

## CC(C)c1ccc(Nc2nc3ccccc3[nH]2)cc1 [Example 25, N-(Benzoimidazol-2-yl)-4-isopropylaniline]
  melting point: 179 to 180 °C

## c1ccc(-c2ccccc2Nc2nc3ccccc3[nH]2)cc1 [Example 28, N-(Benzoimidazol-2-yl)-2-phenylaniline]
  melting point: 152 to 154 °C
